System: Leishmania donovani
Test: Antileishmanial activity against promastigote stage of Leishmania donovani assessed as parasite growth inhibition at 10 ug/ml after 2 hr by MTT assay relative to control
Format: functional
Conditions: read-out: GI

SMILES | inhibition of growth at 10 µg/mL
COc1ccc(-c2cc(-c3ccc(-n4cnc5ccccc54)cc3)nc(N)n2)cc1 | 51.2%
Nc1nc(-c2ccccc2)cc(-c2ccc(-n3ccnc3)cc2)n1 | 32.8%
Nc1nc(-c2ccc(Cl)cc2)cc(-c2ccc(-n3ccnc3)cc2)n1 | 46.1%
COc1ccc(-c2cc(-c3ccc(-n4ccnc4)cc3)nc(N)n2)cc1 | 18.1%
Nc1nc(-c2ccc(Br)cc2)cc(-c2ccc(-n3cnc4ccccc43)cc2)n1 | 32.5%
Nc1nc(-c2ccc(-n3cnc4ccccc43)cc2)cc(-c2ccc(Cl)cc2Cl)n1 | 56.4%
Nc1nc(-c2ccc(Cl)cc2)cc(-c2ccc(-n3cnc4ccccc43)cc2)n1 | 32.7%
Nc1nc(-c2ccccc2)cc(-c2ccc(-n3cnc4ccccc43)cc2)n1 | 41.9%
Nc1nc(-c2ccc(F)cc2)cc(-c2ccc(-n3cnc4ccccc43)cc2)n1 | 29.6%
Nc1nc(-c2ccc(Br)cc2)cc(-c2ccc(-n3ccnc3)cc2)n1 | 24.3%

— ChEMBL document CHEMBL3045414, “Synthesis and evaluation of 2,4,6-trisubstituted pyrimidine derivatives as novel antileishmanial agents” (2013)
